For one data set, the system named is S. aureus 209 P-JC. Briefly: In-vitro antibacterial activity test, minimum growth inhibitory concentration (MIC), S. aureus. The following applies: Staphylococcus aureus, 209PJC, read-out: Minimum growth inhibitory concentration. Type of data set: cell-based.
The next data set concerns P. mirabilis IFO 3849. Briefly: In-vitro antibacterial activity test, minimum growth inhibitory concentration (MIC), P. mirabilis. Type of data set: cell-based. The following applies: Proteus mirabilis.
A short description of data set [1]: In-vivo absorption test, serum concentration after oral administration (bioassay). On the set-up: species or system Wistar type rat (male). The settings on record: 50 mg/kg, fasted male Wistar rat, bioassay with Bacirus cereus S1101, read-out: Blood concentration / Serum concentration; for concentration at 1 h: 1 hr after oral administration; for concentration at 2 h: 2 hr after oral administration; for concentration at 4 h: 4 hr after oral administration.

Setting [2] is: IFO3849, P. mirabilis IFO 3849, read-out: Minimum growth inhibitory concentration.

Converted amounts (≈) assume the structure as drawn. Read-outs that look alike come from different tables or passages of the source. Where only a bound is given, the exact number is not on record here.

`Nc1nc(/C(=N/O)C(=O)NC2C(=O)N3C(C(=O)O)=C(/C=C\c4cnns4)CSC23)cs1` (stereo not shown) [Example 21]: the figures for the MIC with S. aureus 209 P-JC (S. aureus 209 P-JC) and with P. mirabilis IFO 3849 (setting [2]) were 0.2 µg/mL (≈ 0.417 µM) and 0.39 µg/mL (≈ 0.813 µM), respectively.

Consider `CC(=O)OC(C)OC(=O)C1=C(/C=C\c2csnn2)CSC2C(NC(=O)/C(=N\O)c3csc(N)n3)C(=O)N12` (racemic) [Example 23, DL-1-acetyloxyethyl 7-[(Z)-2-(2-aminothiazol-4-yl)-2-hydroxyiminoacetamido]-3-[(Z)-2-(1,2,3-thiadiazol-4-yl)vinyl]-3-cephem-4-carboxylate], for which, in data set [1], the concentration at 1 h stood at 72100 ng/mL, the concentration at 2 h turned out to be 56600 ng/mL and the concentration at 4 h was 33400 ng/mL.

As to `CC(C)(C)C(=O)OCOC(=O)C1=C(/C=C\c2csnn2)CS[C@@H]2C(NC(=O)/C(=N\O)c3csc(N)n3)C(=O)N12` (stereo partly shown) [Example 19, pivalyloxymethyl 7-[(Z)-(2-aminothiazol-4-yl)-2-hydroxyiminoacetamido]-3-[(Z)-2-(1,2,3-thiadiazol-4-yl)vinyl]-3-cephem-4-carboxylate], in data set [1], the concentration at 1 h amounted to 11300 ng/mL, the concentration at 2 h is 9800 ng/mL and the concentration at 4 h is 5800 ng/mL.

Regarding `CCOC(=O)OC(C)OC(=O)C1=C(/C=C\c2csnn2)CSC2C(NC(=O)/C(=N\O)c3csc(N)n3)C(=O)N12` (racemic) [Example 22, DL-1-ethoxycarbonyloxyethyl 7-[(Z)-(2-aminothiazol-4-yl)-2-hydroxyiminoacetamido]-3-[(Z)-2-(1,2,3-thiadiazol-4-yl)vinyl]-3-cephem-4-carboxylate], in data set [1], the concentration at 1 h worked out at 26600 ng/mL, the concentration at 2 h was 37800 ng/mL and the concentration at 4 h amounted to 26700 ng/mL.

As for `Cc1snnc1/C=C\C1=C(C(=O)[O-])N2C(=O)C(NC(=O)/C(=N\O)c3csc(N)n3)[C@H]2SC1.[Na+]` (stereo partly shown) [Example 18, sodium 7-[(Z)-2-(2-aminothiazol-4-yl)-2-hydroxyiminoacetamido]-3-[(Z)-2-(5-methyl-1,2,3-thiadiazol-4-yl)vinyl]-3-cephem-4-carboxylate], the MIC turned out to be 0.2 µg/mL in the data set with S. aureus 209 P-JC (S. aureus 209 P-JC) and 0.39 µg/mL with P. mirabilis IFO 3849 (setting [2]).

As for `Cc1nnsc1/C=C\C1=C(C(=O)[O-])N2C(=O)C(NC(=O)/C(=N\O)c3csc(N)n3)[C@H]2SC1.[Na+]` (stereo partly shown) [Example 14, sodium 7-[(Z)-2-(2-aminothiazol-4-yl)-2-hydroxyiminoacetamido]-3-[(Z)-2-(4-methyl-1,2,3-thiadiazol-5-yl)vinyl]-3-cephem-4-carboxylate], the MIC turned out to be 0.1 µg/mL in the data set on S. aureus 209 P-JC (S. aureus 209 P-JC) and 0.39 µg/mL in the data set with P. mirabilis IFO 3849 (setting [2]).

On to `Nc1nc(/C(=N/O)C(=O)NC2C(=O)N3C(C(=O)[O-])=C(/C=C\c4csnn4)CS[C@H]23)cs1.[Na+]` (stereo partly shown), for which, in data set [1], the concentration at 1 h stood at 4800 ng/mL, the concentration at 2 h amounted to 6000 ng/mL and the concentration at 4 h came to 6000 ng/mL. The MIC in the data set on S. aureus 209 P-JC is not above 0.025 µg/mL. Besides, in the data set on P. mirabilis IFO 3849 (IFO3849, read-out: Minimum growth inhibitory concentration), the MIC is 0.1 µg/mL.

With `C=CC1=C(C(=O)O)N2C(=O)C(NC(=O)/C(=N\OCC(=O)O)c3csc(N)n3)C2SC1` (stereo not shown) [A, reference compound], the values for the MIC with S. aureus 209 P-JC (S. aureus 209 P-JC) and in the data set with P. mirabilis IFO 3849 (setting [2]) were 12.5 µg/mL (≈ 27.6 µM) and not above 0.025 µg/mL, respectively.

(Values after patent US5073551A, “Cephalosporin compounds” (Sagami Chemical Research Center, priority 1988, dated 1991).)
